Calls of active or inactive are those of the source. How the calls were made is not given here.
System: MT1-MMP promoter luciferase reporter cells, luminescence
Experiment: inhibitors of MT1-MMP promoter transcription, cell-based, luciferase reporter, luminescence (AID 618);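 further: actives suppress MT1-MMP promoter-driven transcription so potencies describe inhibitors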

| SMILES | EC50 |
| --- | --- |
| COc1ccc(C(=O)Nc2nnc(-c3ccco3)s2)cc1 | 1.73 µM |
| CN1/C(=C/C(=O)c2nc(S(C)(=O)=O)ncc2Cl)C(C)(C)c2ccccc21 | 16.1 µM |
| Cc1cc(-c2csc(N)n2)c(C)n1CCC(C)C | 39.9 µM |
| O=C(/C=C\Nc1ccccn1)c1ccc(Cl)cc1 | 1.18 µM |
| Oc1ccc(Nc2nc(N3CCCC3)c3ccccc3n2)cc1 | 26.5 µM |
| CC1=NC(=O)C(N=Nc2cccc(C(=O)O)c2)N1c1ccccc1 (stereo not given) | 1.64 µM |
| Clc1ccc(-c2nnc(N3CCCC3)nn2)cc1 | 6.38 µM |
| O=C(Nc1cccc(O)c1)c1noc2c1CCCCC2 | 0.23 µM |
| Nc1ccc2nc(-c3ccccc3)sc2c1 | 1.91 µM |
| Nc1cccc2nc3ccccc3cc12 | 21.9 µM |
| c1ccc(-c2cnc(-c3ccccc3)nc2)cc1 | 3.74 µM |
| O=C(Nc1nc2ccccc2[nH]1)c1ccccc1 | 3.53 µM |
| CCC/C(O)=C1\C(=O)CC(C)(C)CC1=Nc1ccc(OC)cc1OC | 23.6 µM |
| Cc1ccc(C(=O)Nc2nc3c(s2)CCCC3)o1 | 5.98 µM |
| Cc1cc(-c2csc(N)n2)c(C)n1CCc1ccccc1 | 13.2 µM |
| COc1ccc(C2=Nc3ccccc3OC2)cc1 | 38.1 µM |
| Brc1ccc(-c2nc(-c3ccccn3)no2)o1 | 2.14 µM |
| CCOc1ccc(NC(=O)c2cnsn2)cc1 | 8.78 µM |
| N#Cc1c(NC(=O)CSc2ncn[nH]2)sc2c1CCCCC2 | < 0.098 µM |
| CCN(CC)c1ccc2cc(NC(=O)CCC(=O)O)c(=O)oc2c1 | 0.67 µM |
| Cc1ccc(-n2nc3ccc(N)cc3n2)cc1 | 13.6 µM |
| CCOc1ccc2nc(NC(=O)c3ccoc3C)sc2c1 | 0.97 µM |
| O=C(NCc1cccs1)c1nc2c(nnn2Cc2ccccc2Cl)c(=O)[nH]1 | > 50 µM (inactive) |
| c1ccc(-c2nc3cc4ccccc4cc3[nH]2)nc1 | 0.8 µM |

| SMILES | EC50 |
| --- | --- |
| CCc1ccc(NC(=O)c2noc3c2CCC3)cc1 | 4 µM |
| COCCn1c(C)cc(C(=O)CSc2ccc(NC(C)=O)cc2)c1C | 8.54 µM |
| COc1ccc(-c2cn3nc4c(nc3n2)CCCC4)cc1 | 0.59 µM |
| CCCCCN=Cc1c(C)[nH]n(-c2nc3ccccc3s2)c1=O | 6.14 µM |
| Cc1cc(N2CCOCC2)n2ncc(-c3ccccc3)c2n1 | 3.57 µM |
| CC(C)(C)C(=O)N1CCc2cc(-c3csc(N)n3)ccc21 | 1.36 µM |
| Nc1ccc(C(=O)Nc2nc3ccccc3s2)cc1 | 3.47 µM |
| Cc1oncc1C(=O)Nc1ccc(C(F)(F)F)cc1 | 5.65 µM |
| Cc1ccccc1NC(=O)c1cnc2ccccn2c1=O | 2.13 µM |
| CCOc1ccc(-c2cc(CCCC(=O)Nc3cc(OC)ccc3OC)no2)cc1 | 3.5 µM |
| Cc1ccc(NC(=O)c2ccc3c(c2)OCCO3)cc1 | 1.71 µM |
| Cc1ccc(C(=O)Nc2cccc(C(=O)O)c2)cc1 | 0.66 µM |
| COc1cccc(C(=O)/C=C/Nc2cccc(O)c2)c1 | 0.18 µM |
| COc1ccccc1-c1nc(-c2ccccn2)no1 | 1.82 µM |
| CCc1ccc(-c2nnn(CCC(=O)OC)n2)cc1 | 2.02 µM |
| Cc1ccc(-c2csc3ncnc(Sc4nnc(CN5CCCCCC5=O)o4)c23)cc1 | 15 µM |
| COc1cc(SC)ccc1C(=O)Nc1ccc2c(c1)OCCO2 | 13.2 µM |
| CC(=O)N(/N=C1\Sc2ccccc2C1=O)c1ccc(C)cc1C | 1.97 µM |
| COc1ccc(C(=O)Nn2c(SCC(=O)N3CCC(C)CC3)nc3ccccc3c2=O)cc1 | 1.98 µM |
| COc1ccc(-n2ncc3c(NCC(C)C)ncnc32)cc1 | 6.31 µM |
| Cc1cc(C(=O)CSc2nnc(-c3cccs3)o2)c(C)n1-c1ccccc1 | 7.72 µM |
| COc1ccc(-c2cc3nc(C)cc(N)n3n2)cc1 | 1.73 µM |
| CC1CCc2nc(NC(=O)C3CCCO3)sc2C1 (stereo not given) | 12.4 µM |
| Cc1cc(C(=O)CN2C(=O)c3ccccc3S2(=O)=O)c(C)n1CC1CCCO1 (stereo not given) | 0.11 µM |

| SMILES | EC50 |
| --- | --- |
| O=C(c1cc(-c2cccc(O)c2)on1)N1CCCCC1 | 6.35 µM |
| Cc1cccc(C(=O)N2CCN(C(=O)c3cccc(C)c3)C(C)C2)c1 (stereo not given) | > 50 µM (inactive) |
| COc1cccc(-c2nc3cc(C)ccc3o2)c1 | 4.41 µM |
| Cc1ccc2nc(-c3cccc(N)c3)oc2c1 | 3.71 µM |
| CC(=O)Nc1ccc(SCC(=O)c2cc(C)n(Cc3cccs3)c2C)cc1 | 1.22 µM |
| c1ccc(-c2ccc(-c3nc(-c4ccncc4)no3)cc2)cc1 | 9.02 µM |
| Fc1ccc(-c2nnc(-c3ccc(Cl)cc3Cl)o2)cc1 | 8.19 µM |
| O=S(=O)(c1ccc(Cl)cc1)c1snnc1-c1ccccc1 | 13.2 µM |
| C/C(=N/NC(=O)c1cc(C2CC2)[nH]n1)c1cccs1 | 1.77 µM |
| Cn1c(-c2ccccc2)cnc1SCC(=O)N1CCCCC1 | 2.88 µM |
| CCn1c(SCC(=O)Nc2ccccc2C)nnc1-c1ccccc1O | > 50 µM (inactive) |
| Cc1cc(C(=O)Nc2cccc(C(=O)O)c2)oc1C | 0.82 µM |
| O=C(Nc1ccc(CN2CCOCC2)cc1)c1cc2ccccn2n1 | 3.35 µM |
| Cc1nc2ccc(-c3nc4cc(N)ccc4o3)cc2[nH]1 | 3.71 µM |
| Cc1nc2cc(-c3cccc(F)c3)nn2c(C)c1CCC(=O)NC(C)CCc1ccco1 (stereo not given) | 1.12 µM |
| Oc1cccc(-c2nc3ccccc3s2)c1 | 2.99 µM |
| O=C(NC1=NC2CCCCC2N1)c1ccccc1 (stereo not given) | 12.9 µM |
| O=C(CN1C(=O)c2ccccc2S1(=O)=O)c1ccccc1 | > 50 µM (inactive) |
| CCOc1ccc(OCc2ccc(C(=O)O)o2)cc1 | 5.8 µM |
| COc1ccc2nc(-c3ccc(N)cc3)[nH]c2c1 | > 50 µM (inactive) |
| Cc1ccccc1Cn1nnc(-c2cccc(C(=O)O)c2)n1 | 18 µM |
| Cc1ccoc1C(=O)Nc1ccc(CC(=O)O)cc1 | 0.42 µM |
| O=c1/c(=C/c2ccccn2)sc2nc3ccccc3n12 | 10 µM |
| O=C1c2ccccc2C(=O)C1c1ccnc2ccccc12 | 1.02 µM |

| SMILES | EC50 |
| --- | --- |
| Nc1nc(Nc2ccc(Cl)cc2)nc2ccccc12 | 2.13 µM |
| CC1CC(C)(C)Nc2ccc(OC(=O)c3ccco3)cc21 (stereo not given) | 3.01 µM |
| O=C(NC1=NCCS1)c1cc2ccccc2o1 | 6.52 µM |
| CN1CCN(c2ncnc3c2cnn3-c2ccc(Cl)cc2)CC1 | 3.9 µM |
| O=C1C(c2ccnc3ccccc23)=C(O)c2ccccc21 | > 50 µM (inactive) |
| Brc1ccccc1-c1nc(-c2ccccc2)no1 | 6.92 µM |
| COc1ccc(-c2cc(C(=O)O)c(C)o2)cc1OC | 3.55 µM |
| Cc1ccc(SCc2cn3c(C)csc3n2)cc1 | 5.82 µM |
| Cc1ccc(-c2nc3n(n2)Cc2ccccc2-3)cc1 | 1.49 µM |
| CC(C)(C)c1ccc(-c2noc(CCC(N)=O)n2)cc1 | 0.13 µM |
| CC(C)C(=O)Nc1ccc(-c2nc3cccnc3o2)cc1 | 6.05 µM |
| Cc1ccc(C(=O)/C=C2\NCC(C)NC2=O)cc1 (stereo not given) | 3.53 µM |
| COc1ccc(-c2cc3nnc(-c4ccccc4)nc3s2)cc1 | 0.86 µM |
| Oc1c(CN2CCCCC2)cc(COCc2ccccc2)c2cccnc12 | 6.94 µM |
| Cc1ccc2nc(NC(=O)c3ccco3)sc2c1 | 1 µM |
| O=C(O)CCSc1nnc(-c2ccc3c(c2)OCO3)o1 | 29.7 µM |
| O=c1c(Cl)c(N2CCCCC2)cnn1-c1nc2ccccc2[nH]1 | 0.59 µM |
| C=CCNc1nc(-c2ccccn2)nnc1-c1ccccc1 | 15.2 µM |
| COCCn1c(C)cc(C2=NNC(=Nc3ccccc3F)SC2)c1C | 3.04 µM |
| Nc1ccc(-c2nc3ccc(N)cc3o2)cc1 | 14 µM |
| Cc1ccc(-c2nc3cc(C)ccc3o2)cc1 | 2.32 µM |
| Cc1ccc(-c2nnc(SCC(=O)Nc3ccccc3F)o2)cc1 | 0.6 µM |
| CCCc1cc(C(=O)Nc2nccs2)cs1 | 12.7 µM |
